For assay [1], the system named is neonatal rat cardiomyocytes. Kind of assay: Hypoxia-induced apoptosis in cultured neonatal rat cardiomyocytes. It is filed as cell-based. As to conditions: hypoxia 0.3% O2 for 36 h, apoptotic cells by FACS. From the text:
Primary cultures of neonatal rat cardiomyocytes were obtained from the ventricles of 1-day-old Sprague Dawley rats (Janvier, France). The rats were euthanized and their hearts excised. Hearts cut into small pieces (1-2 mm^3) and enzymatically digested using the Neonatal Heart Dissociation Kit rat and the gentleMACS™ Dissociator (MiltenyiBiotec, Germany). After dissociation, the homogenates were filtered (70 μm) to obtain a single-cell suspension. Isolated cells were collected by centrifugation and resuspended in Dulbecco's Modified Eagle's Medium (DMEM) containing 10% horse serum (HS), 5% fetal bovine serum (FBS) and 1% penicillin/streptomycin. Cultures were enriched with myocytes by pre-plating for 90 min to deplete the population of non-myocytes. Non-attached cells were plated onto 6- or 96-well plates at an appropriate cell density. […]
After 24 hours, the cardiomyocytes were treated with different concentrations of test compound in culture medium with 0.1% DMSO. […] Thirty minutes after starting the treatments, the cells were incubated in the hypoxic culture chamber (N2/CO2, 95%/5%; final measured O2: 0.3%) for 36 hours. […]
At the end of the treatment period, flow cytometry were performed to measure the amount of apoptotic cells. […] The mixture was incubated for 15 min in the dark at room temperature, and cellular fluorescence was then measured by FACS scan flow cytometry.
In general terms: In flow cytometry, cells or beads pass a laser one at a time.

Assay [2] has as its system amyloid-beta 1-42 injured primary cortical rat neurons. Kind of assay: In vitro Alzheimer disease model: amyloid-beta 1-42 injured primary cortical rat neurons. The assay is classed as cell-based. The note with it: Amyloid-beta 1-42 20 μM, 24 hours; total number of neurons (MAP-2). The protocol: Rat cortical neurons were cultured as described by Singer et al., (1999 J. Neuroscience 19 pp2455-63) and Callizot et al., (2013 J.Neurosci. Res. 91 pp706-16). Pregnant females (Wistar; Janvier Labs) at 15 days of gestation were killed by cervical dislocation. Fetuses were collected and immediately placed in ice-cold L15 Leibovitz medium (Pan Biotech, Batch: 9310614) with a 2% penicillin (10,000 U/mI) and streptomycin (10 mg/ml) solution (PS; Pan Biotech, Batch: 1451013) and 1% bovine serum albumin (BSA; Pan Biotech, Batch: h140603). Cortex was treated for 20 min at 37° C. with a trypsin-EDTA (Pan Biotech, Batch: 5890314) solution at a final concentration of 0.05% trypsin and 0.02% EDTA. […] Viable cells were counted in a Neubauer cytometer, using the trypan blue exclusion test. […]
The Amyloid-beta1-42 preparation was done following the procedure described by Callizot et al., 2013. […] Amyloid-beta 1-42 preparation was added to a final concentration of 20 μM (including to ˜2 μM of toxic oligomers measured by WB) diluted in control medium in presence of drugs. […]
The immunolabeled cultures were automatically examined with ImageXpress (Molecular device USA) at ×20 magnification. For each condition, 30 automatically fields per well (representing ˜80% of the total surface of the well) from 3 wells were analyzed. […] All values were expressed as mean +/−SEM (s.e.mean) (n=3 wells per condition per culture).

Structures are written as SMILES.

`CCO/N=C(\N)N/N=C/c1ccccc1Cl` [Compound 10, 2-(2-chlorobenzylidene)-N′-ethoxyhydrazinecarboximidamide]: the “protection from hypoxia-induced apoptosis (FIG. 10)” value in assay [1] is reported as “protects”.
For the compound `CCCONC(=N)N/N=C/c1ccccc1Cl` [Compound 12, 2-(2-chlorobenzylidene)-N-propoxyhydrazinecarboximidamide], the “protection of amyloid-beta 1-42 injured primary cortical rat neurons (FIG. 4)” value in assay [2] is “dose dependent protection”.

Values taken from patent US11084783B2, “O-alkyl-benzylideneguanidine derivatives and therapeutic use for the treatment of disorders associated with an accumulation of misfolded proteins” (INFLECTIS BIOSCIENCE, priority 2014, dated 2021).
